The source of these data is patent US4711886A, “β-lactam derivatives as anti-inflammatory and antidegenerative agents” (Merck & Co., Inc., priority 1984, dated 1987).

Where two headings read alike, the source gives them in different places.

The target in this assay is T1, Human Polymorphonuclear Leukocyte Elastase (Homo sapiens, UniProt P08246).
T1 construct: Crude extract of human polymorphonuclear leukocytes (PMN) containing elastase activity; endogenous in cells; host or cells: human polymorphonuclear leukocytes (crude extract)
T1 sequence (P08246 30-247 limits assumed): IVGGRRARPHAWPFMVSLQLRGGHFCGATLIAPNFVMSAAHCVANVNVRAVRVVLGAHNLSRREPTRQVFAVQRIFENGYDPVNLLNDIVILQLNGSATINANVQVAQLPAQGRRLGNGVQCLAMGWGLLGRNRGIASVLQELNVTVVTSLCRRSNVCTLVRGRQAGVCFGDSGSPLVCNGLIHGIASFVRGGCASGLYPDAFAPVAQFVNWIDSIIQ
In words: Inhibition of human polymorphonuclear leukocyte elastase via hydrolysis of N-t-Boc-alanyl-alanyl-prolyl-alanine-p-nitroanilide. Format: biochemical. As to conditions: 50% inhibition of enzyme activity 2 minutes after zero time, crude PMN extract, Boc-AAPAN substrate, pH 7.5. Here is the method:
Enzyme Assays for the Inhibition of Human Polymorphonuclear Leukocyte Elastase Via Hydrolysis of N-t-Boc-alanyl-alanyl-prolylalanine-p-nitroanilide
0.05M TES (N-tris[hydroxymethyl]methyl-2-amino-ethanesulfonic acid) buffer, pH 7.5.
0.2 mM N-t-Boc-alanyl-alanyl-prolyl-alanine-p-nitroanilide (Boc-AAPAN).
To prepare substrate, the solid (m.w. 550) was first dissolved in 10.0 ml DMSO. Buffer at pH 7.5 was then added to a final volume of 100 ml.
Crude extract of human polymorphonuclear leukocytes (PMN) containing elastase activity.
Inhibitors (β-lactam derivatives) to be tested dissolved in DMSO just before use.
To 1.0 ml of 0.2 mM Boc-AAPAN in a cuvette, 0.01-0.1 ml of DMSO with or without inhibitor was added. After mixing, a measurement was taken at 410 mμ to detect any spontaneous hydrolysis due to presence of test compound. 0.05 Milliliters of PMN extract was then added and the ΔOD/min at 410 mμ was measured and recorded. Beckman model 35 spectrophotometer was used.
The elastase activity in the crude PMN extract may vary from one preparation to another. A control of each new batch is run, and the volume added in the assay procedure is adjusted according to activity.

The mark [1] stands for this setting: Table III, penems, read-out: IC50 (converted).

On to `COC1C(=O)N2C(C(=O)OCc3ccccc3)=C(COC(C)=O)SC12` (stereo not shown), for which the IC50 under setting [1] is 11 µM.

As to `CC1=C(C(=O)OCc2ccccc2)N2C(=O)C[C@H]2S1` [R1 = H, n = 0, M = CH3, B = OCH2 C6 H5, benzyl 2-methylpenem-3-carboxylate], the IC50 under setting [1] was 14.5 µM.

Regarding `O=C(O)[C@H]1/C(=C/CO)O[C@@H]2CC(=O)N21` [clavulanic acid, reference compound], the IC50 entry (Table IV, clavulanic acid series) is “inactive”.

For `CCSC1=C(C(=O)OCc2ccc([N+](=O)[O-])cc2)N2C(=O)C(C(C)O)C2S1` (stereo not shown), the IC50 under setting [1] was 4.87 µM.

In the case of `O=C(OCc1ccccc1)C1C(=CCO)OC2CC(=O)N21` (stereo not shown) [B1 = CH2 C6 H5], the IC50 (Table IV, clavulanic acid series, read-out: IC50 (converted)) is 10.4 µM.

In the case of `CCSC1=C(C(=O)OCc2ccc([N+](=O)[O-])cc2)N2C(=O)C(C(C)OC(=O)OCc3ccccc3)C2S1` (stereo not shown), under setting [1], the IC50 is 0.367 µM.

Consider `CCOC1=C(C(=O)OCc2ccccc2)N2C(=O)CC2S1` (stereo not shown), for which the IC50 under setting [1] was 6.55 µM.

By IC50 is commonly meant the concentration at which inhibition is half-maximal.
